Measured values from PMC8018653, “Gender-based differences in brain and plasma pharmacokinetics of letrozole in sprague-dawley rats: Application of physiologically-based pharmacokinetic modeling to gain quantitative insights” (PLoS ONE, 2021).
Several values for one entry are separate records, joined by “and”; a condition that tells them apart may be missing. Identical values can stand only once. Entries after “also recorded” stand apart in the source; their conditions may differ. Like-named read-outs stand apart in the source and are kept apart here. Marks after values point to notes of the source that are not given here.

Key:
[1] = Single dose plasma pharmacokinetics (4 mg/kg i.p.), NCA; assay type: in vivo, Sprague-Dawley rats; details: for Cmax / Tmax / AUC(0-t) / half-life: ip; for Cmax / Tmax / CL (systemic clearance), plasma / Half-life t1/2, plasma / AUC 0–12, plasma unbound / AUC 0–72, plasma unbound / Cmax, plasma unbound / AUC(0-t) / half-life: single dose 4 mg/kg i.p.; for Cmax: read-out: Cmax, plasma total; for Tmax: read-out: Tmax, plasma total; for AUC 0–12, plasma unbound / AUC 0–72, plasma unbound / Cmax, plasma unbound: fraction unbound 0.38; for half-life: read-out: Half-life t1/2, plasma (converted)
Description: (§1) Age-matched (7–9 weeks) adult female (201–225 g; N = 10) and male (301–325 g; N = 10) jugular vein cannulated Sprague-Dawley rats (Charles River Laboratories) were used for this study. The experiments were conducted in strict accordance with the University of Cincinnati Institutional Animal Care and Use Committee (UC IACUC)-approved protocol (Protocol Number: 10-11-01-01) and all the studies were performed as per the highest international standards of animal welfare outlined by the NIH’s Guide for the Care and Use of Laboratory Animals. Upon arrival, animals were housed individually under pathogen-free, temperature and humidity-controlled environment on a 12/12 h light/dark cycle and were given access to standard chow and water ad libitum (ad-lib). To maintain the patency of the jugular vein catheters, they were flushed with normal saline and locked with the heparin-dextrose solution every other day.
Within 10 minutes of collection, plasma was separated by centrifugation of the blood samples at 4,000 rpm for 15 min. Microdialysis samples were collected simultaneously through the probes at the same time points from 0–12 hours.
(§2) Letrozole was extracted from the plasma samples using the liquid-liquid extraction technique. Calibration standards were freshly prepared by spiking working letrozole solution into the blank rat plasma to give a concentration curve ranging from 5 to 5000 ng/ml. Briefly, 50 μl of the plasma sample/standard spiked with known letrozole concentration was transferred to a glass tube containing 1 mL of the extraction solvent methyl-tertiary-butyl ether. All the samples were then vortex mixed for 40 sec and centrifuged for 5 min. 800 μl of the supernatant was decanted into a clean test tube and evaporated to dryness using a CentriVap evaporator. The precipitate was reconstituted in 100 μl of the mobile phase and vortex mixed, following which, 50 μl sample volume was injected onto the HPLC system for analysis. The dialysis samples, on the other hand, were injected directly onto HPLC.

[2] = Steady state plasma pharmacokinetics (4 mg/kg i.p. once daily), NCA; assay type: in vivo, Sprague-Dawley rats; details: for Cmax / Tmax / AUC(0-t): Sprague-Dawley, rat, ip; for Cmax / Tmax / Rac’ (theoretical/predicted accumulation ratio, Eq 2) / AUC(0-t): plasma; for Cmax: read-out: Cmax, plasma total; for Tmax: read-out: Tmax, plasma total; for AUC 0–12, plasma unbound / AUC 0–24, plasma unbound / Cmax, plasma unbound: fraction unbound 0.38; for AUC(0-t): 4 mg/kg
Description: as §1, §2

[3] = cited from earlier work
C6 orthotopic tumor = system: C6 orthotopic tumor; design: method as in PMID 25695958; details: C6 orthotopic glioma, rats, 4 mg/kg; cited from earlier work
[4] = design: method as in PMID 16489364; details: cited from earlier work
[5] = design: method as in PMID 17045772; details: rat liver microsomes; cited from earlier work
[6] = design: method as in PMID 30357450; details: NSG mice; cited from earlier work
[7] = Steady state brain ECF pharmacokinetics by intracerebral microdialysis; details: for Kp uu at 264 h / Kp uu / Kp uu at 120 h: intraperitoneal; for Kp uu at 264 h: 11 days; for Kp uu: Kpuu, range over single dose and steady state (Cmax and AUC0-12); for Kp uu at 120 h: 5 days
Description: The average in vitro relative recovery of letrozole was determined at a flow rate of 2.0 μ1/min at 35°C.
Microdialysis probes were surgically implanted in jugular vein cannulated rats under anesthesia (ketamine/ xylazine 70/ 6 mg/kg i.p., Henry Schein, NY) one day prior to the experiment. Buprenorphine (Buprenex®, Henry Schein, NY) was administered for perioperative analgesia. The probe was inserted into the striatum with the following tip coordinates: A/P, 1.2 mm, L, 3.1 mm, and D/V −7.8 mm, according to the stereotaxic atlas of Paxinos and Watson [21]. The active portion of the membrane for the probes was 4.5 mm. Following implantation, the probes were connected to an infusion pump set to deliver modified Dulbecco’s phosphate buffered saline containing 1.2 mm CaCl2 and 5 mM glucose at a flow rate of 1 μl/min overnight.
To establish the steady state, letrozole was administered via the intraperitoneal route at a dose of 4mg/kg o.d for 11 days (female rats) and 5 days (male rats) based on the previously published data and our preliminary experiments. On the day of the experiment (last day of dosing), blood and dialysis samples were collected concurrently as described above at the following time points- pre-dose, 1, 2, 4, 6, 8 and12 h post administration. An additional 24 hr time point was included in the plasma sample collection and all the samples were stored at -80°C until analyzed.
Three sets of calibration plots were constructed for method validation.
Non-compartmental analysis (NCA) was performed using Phoenix WinNonlin® software (version 6.2.1, Pharsight, St. Louis, MO, USA) and the PK parameters determined included peak concentration (Cmax), time to reach peak concentration (Tmax), area under the concentration-time curve between time zero to the last observed concentration time point (AUC0- t) and the elimination half-life (t1/2). Actual sampling times were employed for calculations except for the pre-dose times, which were kept as zero. Since the blood sampling period spanned less than 4.5 half-lives in female rats, plasma AUC0-∞ values could not be determined reliably. Consequently, we were constrained to reporting AUC0-t values for letrozole in this study which was calculated using the linear trapezoidal method. For consistency, only AUC0-t values were reported for male rats as well. Cmax and Tmax values were obtained directly from the concentration-time data. […] Brain ECF concentrations were time-averaged over the collection interval and were corrected for the observed relative recovery. The brain-to-plasma unbound partition coefficients (Kpuu) were calculated as a ratio of the Cmax or AUC0-12 of letrozole levels in the brain ECF to corresponding plasma Cmax and AUC values corrected for plasma protein binding.

[8] = Sprague-Dawley, rat, plasma, female rats
[9] = Sprague-Dawley, rat, plasma, male rats
[10] = female rats, steady state, 4 mg/kg i.p. daily for 11 days
[11] = male rats, steady state, 4 mg/kg i.p. daily for 5 days
[12] = female rats, steady state, 11 days
[13] = male rats, steady state, 5 days

clearance ([1]; Sprague-Dawley, rat, plasma, intraperitoneal, 4 mg/kg, female rats, read-out: clearance observed in this study): ~0.25 mL/min
Cmax [1, 8]: 1200 ng/mL
Tmax [1, 8]: 8.5 h
Cmax [1, 9]: 1060 ng/mL
Tmax [1, 9]: 6.5 h
CL (systemic clearance), plasma ([1]; female rats): 57.4 (13.0)*** ml/h/kg
Half-life t1/2, plasma ([1]; female rats, 4 mg/kg): 34.0 (3.6)*** h
AUC 0–12, plasma unbound ([1]; female rats): 4446 (1160) h.ng/ml
AUC 0–72, plasma unbound ([1]; female rats): 20668 (4980) h.ng/ml
Cmax, plasma unbound ([1]; female rats): 456 (60) ng/ml
AUC(0-t) ([1]; female, Sprague-Dawley, rat, plasma, 4 mg/kg, female rats, read-out: AUC 0–12, plasma total): 11700 ng·h/mL
AUC(0-t) ([1]; female, Sprague-Dawley, rat, plasma, 4 mg/kg, female rats, read-out: AUC 0–72, plasma total): 54400 ng·h/mL
half-life ([1]; female, Sprague-Dawley, rat, plasma, 4 mg/kg, female rats): ~34 h
Half-life t1/2, plasma ([1]; male rats, 4 mg/kg): 9.2 (2.4) h and 9.23 h
AUC 0–12, plasma unbound ([1]; male rats): 4066 (1140) h.ng/ml
AUC 0–72, plasma unbound ([1]; male rats): 9447 (1920) h.ng/ml
Cmax, plasma unbound ([1]; male rats): 403 (136) ng/ml
AUC(0-t) ([1]; male, Sprague-Dawley, rat, plasma, 4 mg/kg, male rats, read-out: AUC 0–12, plasma total): 10700 ng·h/mL
AUC(0-t) ([1]; male, Sprague-Dawley, rat, plasma, 4 mg/kg, male rats, read-out: AUC 0–72, plasma total): 24900 ng·h/mL
half-life ([1]; male, Sprague-Dawley, rat, plasma, 4 mg/kg, male rats): ~9 h
Cmax [2, 10]: 4830 ng/mL
Tmax [2, 10]: 5.3 h
Cmax [2, 11]: 1490 ng/mL
Tmax [2, 11]: 3.3 h
Rac plasma (observed accumulation ratio, AUC0-12) ([2]; female rats, Day 11 / Day 1): 4.2
Rac plasma (observed accumulation ratio, Cmax) ([2]; female rats, Day 11 / Day 1): 4.0
Rac’ (theoretical/predicted accumulation ratio, Eq 2) ([2]; female rats): 2.6
CL (systemic clearance), plasma [2, 10]: 39.3 (5.5)* ml/h/kg
AUC 0–12, plasma unbound [2, 12]: 18734 (2360) h.ng/ml
AUC 0–24, plasma unbound [2, 12]: 39129 (5267) h.ng/ml
Cmax, plasma unbound [2, 12]: 1835 (359) ng/ml
AUC(0-t) ([2]; female, female rats, steady state, 4 mg/kg i.p. daily for 11 days, read-out: AUC 0–12, plasma total): 49300 ng·h/mL
AUC(0-t) ([2]; female, female rats, steady state, 4 mg/kg i.p. daily for 11 days, read-out: AUC 0–24, plasma total): 103000 ng·h/mL
AUC(0-t) ([2]; female, female rats, steady state, 4 mg/kg i.p. daily for 11 days, read-out: plasma AUC 0–24): 103000 ng·h/mL
observed accumulation at steady state (plasma Cmax and AUC0-12) ([2]; male rats): approximately 1.4 fold
Rac plasma (observed accumulation ratio, AUC0-12) ([2]; male rats, Day 5 / Day 1): 1.4
Rac plasma (observed accumulation ratio, Cmax) ([2]; male rats, Day 5 / Day 1): 1.4
Rac’ (theoretical/predicted accumulation ratio, Eq 2) ([2]; male rats): 1.2
CL (systemic clearance), plasma [2, 11]: 200.6 (98) ml/h/kg
AUC 0–12, plasma unbound [2, 13]: 5624 (2430) h.ng/ml
AUC 0–24, plasma unbound [2, 13]: 9424 (4660) h.ng/ml
Cmax, plasma unbound [2, 13]: 566 (209) ng/ml
AUC(0-t) ([2]; male, male rats, steady state, 4 mg/kg i.p. daily for 5 days, read-out: AUC 0–12, plasma total): 14800 ng·h/mL
AUC(0-t) ([2]; male, male rats, steady state, 4 mg/kg i.p. daily for 5 days, read-out: AUC 0–24, plasma total): 24800 ng·h/mL
AUC(0-t) ([2]; male, male rats, steady state, 4 mg/kg i.p. daily for 5 days, read-out: plasma AUC 0–24): 24800 ng·h/mL
systemic clearance, difference between male and female rats ([2]; steady state): approximately 5.0 fold
accumulation at steady state (brain ECF Cmax and AUC0-12) ([7]; female rats): 3.5 to 4.0 fold
predicted steady state average concentration, brain ECF ([7]; female rats): ~1,000 ng/ml
Rac brain (observed accumulation ratio, AUC0-12) ([7]; female rats, Day 11 / Day 1): 4.2
Rac brain (observed accumulation ratio, Cmax) ([7]; female rats, Day 11 / Day 1): 3.5
Kp uu at 264 h ([7]; female, Sprague-Dawley, rat, brain ECF / unbound plasma, 4 mg/kg, Kpuu (AUC0-12 brain ECF / plasma unbound), female rats, steady state): 1.3
Kp uu at 264 h ([7]; female, Sprague-Dawley, rat, brain ECF / unbound plasma, 4 mg/kg, Kpuu (Cmax brain ECF / plasma unbound), female rats, steady state): 1.2
Kp uu ([7]; female, Sprague-Dawley, rat, brain ECF / unbound plasma, 4 mg/kg, female rats): 1.2 to 1.4
accumulation at steady state (brain ECF Cmax and AUC0-12) ([7]; male rats): 2.0 fold
predicted steady state average concentration, brain ECF ([7]; male rats): ~210 ng/mL
Rac brain (observed accumulation ratio, AUC0-12) ([7]; male rats, Day 5 / Day 1): 2.0
Rac brain (observed accumulation ratio, Cmax) ([7]; male rats, Day 5 / Day 1): 1.9
Kp uu at 120 h ([7]; male, Sprague-Dawley, rat, brain ECF (striatal microdialysate) / unbound plasma, 4 mg/kg, Kpuu (AUC0-12 brain ECF / plasma unbound), male rats, steady state): 0.9
Tmax ([7]; male, Sprague-Dawley, rat, brain ECF (striatal microdialysate), ip, 4 mg/kg): 3.3 h
AUC(0-t) ([7]; male, Sprague-Dawley, rat, brain ECF (striatal microdialysate), ip, 4 mg/kg, AUC 0–12, brain ECF, male rats, steady state, 4 mg/kg i.p. daily for 5 days): 4820 ng·h/mL
AUC(0-t) ([7]; male, Sprague-Dawley, rat, brain ECF (striatal microdialysate), ip, 4 mg/kg, brain ECF AUC 0–12, male rats, steady state, 4 mg/kg i.p. daily for 5 days): 4800 ng·h/mL
Kp uu at 120 h ([7]; male, Sprague-Dawley, rat, brain ECF / unbound plasma, 4 mg/kg, Kpuu (Cmax brain ECF / plasma unbound), male rats, steady state): 0.9
Kp uu ([7]; male, Sprague-Dawley, rat, brain ECF / unbound plasma, 4 mg/kg, male rats): 0.6 to 0.9
brain ECF exposure (Cmax, AUC0-12), higher in female rats ([7]; steady state): 4.7 to 5 fold
Structure (SMILES): N#Cc1ccc(C(c2ccc(C#N)cc2)n2cncn2)cc1 [letrozole]
CL (systemic clearance), plasma ([1]; male rats, 4 mg/kg): 145.9 ± 14.0 ml/h/kg and 146 (14.0) ml/h/kg
Blood-to-plasma partition ratio ([3]; PBPK input, ref CDER NDA 20–726): 0.8
plasma protein binding [3]: ≈ 60%
in vivo efficacy (tumor mass / volume) (C6 orthotopic tumor): marked reduction in the tumor mass; also recorded: marked reduction in tumor volume
oral bioavailability [4]: ~100%
overall intrinsic clearance and formation rate of the carbinol metabolite, male versus female rats [5]: about 3.0 fold
half-life [6]: ~ 3 hrs
Cmax, brain ECF ([7]; male rats, steady state, 4 mg/kg i.p. daily for 5 days, 4 mg/kg): 490 ± 240 ng/ml and 490 (240) ng/ml and 490 ng/ml
